According to patent publication US4231946A, “14,15-Methylene derivatives of the estrane series and methods for preparing same” (VEB Jenapharm, priority 1978, dated 1980):
Like-named read-outs stand apart in the source and are kept apart here.

Columns and labels:
[1] = Antiestrogenic properties; conditions: in vivo
Source text: (§1) STS 593 was weaker than ethynylestradiol by a factor of 9 in its estrogenic properties as shown by the Allen-Doisy test in ovariectomized mice. The compound was only 7% as active as the standard mestranol in producing a uterine response in infantile rats (Table 3), whereas the antiestrogenic properties exceeded those of clomiphene citrate by a factor of 1.4.

[2] = system: mice (uterine fresh weight); assay: Uterine activity in mice (dose for doubling uterine fresh weight); assay type: in vivo, mouse; conditions: p.o.
Source text: (§2) Uterine and contraceptive activities produced by selected
(§3) 14,15-methylene-17-ol-estratrienes in mice

ovariectomized mice = assay: Allen-Doisy test in ovariectomized mice (estrogenic properties); assay type: in vivo, mouse
Source text: as §1

inseminated rats = assay: Antinidation / Nidation Inhibition Test in inseminated rats treated on the 1st day of gestation; assay type: in vivo, rat; conditions: for ED50 / ED5 / ED95: Rattus norvegicus, po
Source text: The favorable biological properties of the named compounds of the process according to the invention are to be further illustrated and described in the example of 3-methoxy-14β-15β-methylene-estra-1,3,5(10)-triene-17β-ol (test designation STS 593).
(§4) Gestation and nidation inhibition expressed in % were used as parameters for antifertility effects. GHE1 (gestation inhibitory effect) and IHE1 (nidation inhibitory effect) were related to the inhibition of the total of gestations or nidations, GHE2 and IHE2 were related to the inhibition of normal gestations or nidations within each group. […] GHE1, GHE2, IHE1 and IHE2 were calculated using the following formulae: [formula] n=number of females inseminated in each group v=test group
k=control group (sesame oil)
x=number of all gestations (GHE1) and of normal gestations (GHE2) p. group, respectively
(§5) f=average number (x) of all implantations (IHE1) and of normal implantations (IHE2) p. female inseminated within a group, respectively.
The comparison of the relative incidence of gestations was performed by the Ryan test, the comparison of the number of implantations by the Dunn test.
(§6) For GHE1 and GHE2 the ED (effective doses) for the HE (inhibitory effect) 0%, 50%, and 95% as far as possible were determined by means of the probit analysis. The ED50 for IHE1 and IHE2 were determined graphically.

mice = assay: Contraceptive activity in mice, single application on 1st day of gestation; assay type: in vivo, mouse; conditions: mice, 10 mg/kg p.o., single application
Protocol: as §4, §5, §6, §2, §3

[3] = General statement on antifertility effects and separation from uterine, estrogenic and antigonadotrophic activities; assay type: in vivo; conditions: compared to mestranol
infantile rabbit uteri = assay: McPhail test, progestagenic and antiprogestagenic activities in infantile rabbit uteri; assay type: in vivo
Source text: (§7) The HE of 97.3% is significant (Table 5).
Progestagenic and antiprogestagenic activities of STS 593
in infantile rabbit uteri as shown by the McPhail test

rats (testicular mass) = assay: Antigonadotrophic activity (testicular mass) in rats; assay type: in vivo, rat; conditions: for ED50: Rattus norvegicus; for IE %: testicular mass
Protocol: The effective dose for the HE50 was close to 0.65 mg/kg of body-wt./5 d, while mestranol has the same effect at a dose as low as 0.15 mg/kg of body-wt./5 d.

infantile male rats = assay: Androgenic, anabolic and antiandrogenic effects in infantile male rats; assay type: in vivo, rat; conditions: orally over 6 days, total doses 0.75-3.0 mg/animal
Source text: as §7

[4] = 1st trial 1975, 0.1 mg/kg p.o., n=12
[5] = 1st trial 1975, 0.3 mg/kg p.o., n=12
[6] = 1st trial 1975, 0.9 mg/kg p.o., n=12
[7] = 2nd trial 1978, 0.08 mg/kg p.o., n=10
[8] = 2nd trial 1978, 0.16 mg/kg p.o., n=10
[9] = 2nd trial 1978, 0.32 mg/kg p.o., n=10
[10] = 2nd trial 1978, 0.64 mg/kg p.o., n=10
[11] = 2nd trial 1978, 1.28 mg/kg p.o., n=10
[12] = 10 mg/kg p.o. + progesterone 4 mg/animal s.c., over 4 days, n=5
[13] = total dose 0.25 mg/kg of body-wt. p.o., n=9
[14] = total dose 0.50 mg/kg of body-wt. p.o., n=10
[15] = total dose 1.00 mg/kg of body-wt. p.o., n=10

For COc1ccc2c(c1)CC[C@@H]1[C@@H]2CC[C@]2(C)[C@@H](O)C[C@H]3C[C@@]312 [STS 593, 3-methoxy-14β,15β-methylene-estra-1,3,5(10)-triene-17β-ol], the “Antiestrogenic properties: factor exceeding clomiphene citrate” value [1] was 1.4 factor, the “Antiestrogenic properties (in words)” value ([1]; listed as 3-methoxy-14β,15β-methylene-estra-1,3,5(10)-triene-17β-ol) was “marked antiestrogenic properties” and the “Antiestrogenic properties (in words)” value ([1]; listed as 3-methoxy-14β-15β-methylene-estra-1,3,5(10)-triene-17β-ol) was “produces antiestrogenic and antiprogestagenic effects”. The “Total dose for doubling uterine fresh weight” value [2] was 0.45 μg/animal, the “Estrogenic properties: factor weaker than ethynylestradiol” value (ovariectomized mice) was 9 factor and the “Female rats pregnant of n, normal” value (inseminated rats; [4]) was 10. For the same compound, the “Female rats pregnant of n, total” value (inseminated rats; [4]) was 10, the GHE1 (inseminated rats; [4]) was 16.7% and the GHE2 (inseminated rats; [4]) was 16.7%. For the same compound, the IHE1 (inseminated rats; [4]) was 30.0%, the IHE2 (inseminated rats; [4]) was 34.7% and the “Implantations per female (-x), normal” value (inseminated rats; [4]) was 8.2. For the same compound, the “Implantations per female (-x), total” value (inseminated rats; [4]) was 8.8, the “Female rats pregnant of n, normal” value (inseminated rats; [5]) was 5 and the “Female rats pregnant of n, total” value (inseminated rats; [5]) was 8. For the same compound, the GHE1 (inseminated rats; [5]) was 33.3%, the GHE2 (inseminated rats; [5]) was 58.3% and the IHE1 (inseminated rats; [5]) was 70.0%. The IHE2 (inseminated rats; [5]) was 72.7%, the “Implantations per female (-x), normal” value (inseminated rats; [5]) was 3.4 and the “Implantations per female (-x), total” value (inseminated rats; [5]) was 3.8. The “Female rats pregnant of n, normal” value (inseminated rats; [6]) was 3, the “Female rats pregnant of n, total” value (inseminated rats; [6]) was 6 and the GHE1 (inseminated rats; [6]) was 50.0%. The GHE2 (inseminated rats; [6]) was 75.0%, the IHE1 (inseminated rats; [6]) was 86.7% and the IHE2 (inseminated rats; [6]) was 94.7%. The “Implantations per female (-x), normal” value (inseminated rats; [6]) was 0.7, the “Implantations per female (-x), total” value (inseminated rats; [6]) was 1.7 and the “Female rats pregnant of n, normal” value (inseminated rats; [7]) was 9. The “Female rats pregnant of n, total” value (inseminated rats; [7]) was 9, the GHE1 (inseminated rats; [7]) was 10% and the GHE2 (inseminated rats; [7]) was 10%. The IHE1 (inseminated rats; [7]) was 18.5%, the IHE2 (inseminated rats; [7]) was 19.2% and the “Implantations per female (-x), normal” value (inseminated rats; [7]) was 10.5. For the same compound, the “Implantations per female (-x), total” value (inseminated rats; [7]) was 10.6, the “Female rats pregnant of n, normal” value (inseminated rats; [8]) was 2 and the “Female rats pregnant of n, total” value (inseminated rats; [8]) was 10. For the same compound, the GHE1 (inseminated rats; [8]) was 0%, the GHE2 (inseminated rats; [8]) was 80% and the IHE1 (inseminated rats; [8]) was 32.3%. The IHE2 (inseminated rats; [8]) was 82.3%, the “Implantations per female (-x), normal” value (inseminated rats; [8]) was 2.3 and the “Implantations per female (-x), total” value (inseminated rats; [8]) was 8.8. For the same compound, the “Female rats pregnant of n, normal” value (inseminated rats; [9]) was 3, the “Female rats pregnant of n, total” value (inseminated rats; [9]) was 5 and the GHE1 (inseminated rats; [9]) was 50%. For the same compound, the GHE2 (inseminated rats; [9]) was 70%, the IHE1 (inseminated rats; [9]) was 74.6% and the IHE2 (inseminated rats; [9]) was 86.1%. The “Implantations per female (-x), normal” value (inseminated rats; [9]) was 1.8, the “Implantations per female (-x), total” value (inseminated rats; [9]) was 3.3 and the “Female rats pregnant of n, normal” value (inseminated rats; [10]) was 0. The “Female rats pregnant of n, total” value (inseminated rats; [10]) was 4, the GHE1 (inseminated rats; [10]) was 60% and the GHE2 (inseminated rats; [10]) was 100%. The IHE1 (inseminated rats; [10]) was 87.7%, the IHE2 (inseminated rats; [10]) was 100% and the “Implantations per female (-x), normal” value (inseminated rats; [10]) was 0. For the same compound, the “Implantations per female (-x), total” value (inseminated rats; [10]) was 1.6, the “Female rats pregnant of n, normal” value (inseminated rats; [11]) was 0 and the “Female rats pregnant of n, total” value (inseminated rats; [11]) was 2. For the same compound, the GHE1 (inseminated rats; [11]) was 80%, the GHE2 (inseminated rats; [11]) was 100% and the IHE1 (inseminated rats; [11]) was 88.5%. For the same compound, the IHE2 (inseminated rats; [11]) was 100%, the “Implantations per female (-x), normal” value (inseminated rats; [11]) was 0 and the “Implantations per female (-x), total” value (inseminated rats; [11]) was 1.5. The ED50 (inseminated rats; according to trial No. 1, read-out: ED50 for IHE1) was 0.175 mg/kg, the ED50 (inseminated rats; according to trial No. 1, read-out: ED50 for IHE2) was 0.155 mg/kg and the ED50 (inseminated rats; determined graphically, STS 593 from trial No. 2, read-out: ED 50 for IHE1) was 0.22 mg/kg. It also gave an ED50 (inseminated rats; determined graphically, STS 593 from trial No. 2, read-out: ED 50 for IHE2) of 0.112 mg/kg, an ED5 (inseminated rats; probit analysis, STS 593 from trial No. 2, read-out: ED 05 for GHE1) of 0.078 mg/kg and an ED5 (inseminated rats; probit analysis, STS 593 from trial No. 2, read-out: ED 05 for GHE2) of 0.044 mg/kg. For the same compound, the ED50 (inseminated rats; probit analysis, STS 593 from trial No. 2, read-out: ED 50 for GHE1) was 0.474 mg/kg, the ED50 (inseminated rats; probit analysis, STS 593 from trial No. 2, read-out: ED 50 for GHE2) was 0.147 mg/kg and the ED95 (inseminated rats; probit analysis, STS 593 from trial No. 2, read-out: ED 95 for GHE1) was 2.59 mg/kg. The ED95 (inseminated rats; probit analysis, STS 593 from trial No. 2, read-out: ED 95 for GHE2) was 0.454 mg/kg, the “Contraceptive activity related to IHE1, compared to ethynylestradiol” value (inseminated rats; female rat) was “nearly double the activity of ethynylestradiol” and the “Contraceptive activity related to IHE1, compared to mestranol” value (inseminated rats; female rat) was “in the range of that of mestranol”. The “THE, % after single application of 10 mg/kg of body-wt. on the 1st day of gestation p.o.” value (mice) was 80.2%, the “Separation of contraceptive properties and undesirable (estrogenic, antigonadotrophic, progestagenic) side-effects vs mestranol” value [3] was “more favorable separation” and the “McPhail index (-x)” value (infantile rabbit uteri; 2 mg/kg p.o. + progesterone 4 mg/animal s.c., over 4 days, n=6) was 3.8. For the same compound, the “McPhail index (-x)” value (infantile rabbit uteri; 2 mg/kg p.o. alone, total dose over 4 days, n=5) was 0, the HE % (infantile rabbit uteri; [12]) was 26.7% and the “McPhail index (-x)” value (infantile rabbit uteri; [12]) was 2.2. For the same compound, the “McPhail index (-x)” value (infantile rabbit uteri; 50 mg/kg p.o. + progesterone 4 mg/animal s.c., over 4 days, n=6) was 0.08, the HE % (infantile rabbit uteri; 50 mg/kg p.o. + progesterone 4 mg/animal s.c., over 4 days, significant) was 97.3% and the “Antiprogestagenic effects (in words)” value (infantile rabbit uteri; rabbit, in vivo) was “produces antiestrogenic and antiprogestagenic effects”. The Progestagenic activity (infantile rabbit uteri; rabbit, in vivo) was “lacking in progestagenic activity”, the Antiprogestagenic properties (infantile rabbit uteri; rabbits, oral, 50 mg/kg) was “showed antiprogestanenic properties” and the ED50 (rats (testicular mass); 120 h, rats, read-out: Effective dose for the HE50, antigonadotrophic) was about 0.65 mg/kg. For the same compound, the ED50 (rats (testicular mass); po, antigonadotrophic, total dose p.o., read-out: HE 50 (the source's name)) was 0.65 mg/kg, the “Antigonadotrophic effect compared to mestranol” value (rats (testicular mass); rats) was “four times weaker than mestranol” and the IE % (rats (testicular mass); [13]) was 18.1%. For the same compound, the IE % (rats (testicular mass); [14]) was 39.6%, the IE % (rats (testicular mass); [15]) was 68.9% and the “Testicular mass (-x ± s-x)” value (rats (testicular mass); [13]) was 312.4 ± 42.5 mg. For the same compound, the “Testicular mass (-x ± s-x)” value (rats (testicular mass); [14]) was 272.3 ± 37.7 mg, the “Testicular mass (-x ± s-x)” value (rats (testicular mass); [15]) was 217.6 ± 24.2 mg and the Anabolic effects (infantile male rats) was “did not show any”. For the same compound, the Androgenic effects (infantile male rats) was “did not show any” and the Antiandrogenic effects (infantile male rats) was “did not show any”.
